Earlier results as cited in patent US20250345482A1, “3D PRINTED GALLIUM SCAFFOLD” (Northeast Ohio Medical University, priority 2024, published 2025).

What was measured:
NFAT2, TRAP, and c-Fos = details: literature (Verron E et al. 2012)
[1] = test system: osteoclast differentiation and function; details: inventors' earlier publication (Ghanta P. et al. 2023)

O=[N+]([O-])[O-].O=[N+]([O-])[O-].O=[N+]([O-])[O-].[Ga+3] [gallium nitrate]
Effect on transcription factors responsible for osteoclast differentiation (NFAT2, TRAP, and c-Fos): dose-dependent downregulation

CC(=O)/C=C(/C)[O][Ga]([O]/C(C)=C\C(C)=O)[O]/C(C)=C\C(C)=O [GaAcAc, gallium acetylacetonate]
Osteoclast differentiation and function [1]: effectively inhibited
